# Experimental data: US12419947B2, “Inorganic polyatomic oxyanions for protecting against antigenic damage during pathogen inactivation for vaccine production” (priority 2016, dated 2025)
# Legend:
# [1] = system: Campylobacter coli (C. coli); assay: C. coli inactivation (viable bacteria over time); assay type: cell-based; conditions: H2O2=0.01%, MZ=20 μM, 150 mM NaPO4
# [2] = system: dengue serotype 4 (DENV4); assay: DENV4 live virus plaque assay on Vero cells; assay type: cell-based, dengue virus; conditions: for virus inactivation with added salt during H2O2/CuCl2 inactivation: 0.01% H2O2, 1 μM CuCl2, 20 hours; for rate of inactivation (viable virus at 1 hr post-inactivation): H2O2=0.01%, compound 10 μM
# [3] = system: smallpox; conditions: in vivo; cited from earlier work
# [4] = system: Listeria monocytogenes; assay: Listeria monocytogenes inactivation (CFU/mL); assay type: cell-based; conditions: H2O2=0.10%, MZ=100 μM, 150 mM NaPO4
# [5] = system: Shigella dysenteriae; assay: Shigella dysenteriae inactivation (CFU/mL); assay type: cell-based; conditions: H2O2=0.10%, CuCl2=10 μM, MZ=100 μM, 150 mM NaPO4
# [6] = system: dengue serotype 4 (DENV4); assay: DENV-specific sandwich ELISA (MAbs 15A5 and 6H6) on treated DENV4; assay type: binding, dengue virus; conditions: for ELISA signal / antigenicity with added salt during H2O2/CuCl2 inactivation: 0.01% H2O2, 1 μM CuCl2, 20 hours, vs standard conditions; for ELISA signal with added oxyanion during formaldehyde inactivation: 0.01% formaldehyde, 20 days at 37° C.; for ELISA signal with added oxyanion during BPL inactivation: 0.1% BPL; for antigenicity (ELISA at 20 hrs post-inactivation): H2O2=0.01%, compound 10 μM
# [7] = system: vaccinia virus (VV); assay type: cell-based; conditions: H2O2=0.002%, CuCl2=1 μM, MZ=10 μM, PBS pH=7.5
# [8] = system: chikungunya virus (CHIKV); assay type: cell-based
# [9] = system: chikungunya virus (CHIKV); assay: CHIKV-specific sandwich ELISA (retained antigenicity); assay type: binding
# [10] = system: vaccinia; conditions: cited from earlier work
# [11] = system: dengue virus 3 (DENV3); assay: DENV-specific sandwich ELISA on treated DENV3; assay type: binding; conditions: H2O2 0.01%
# [12] = system: yellow fever virus (YFV)
# [13] = system: DENV2; assay: DENV2 inactivation kinetics (PFU assay); assay type: cell-based, dengue virus; conditions: 3% H2O2, or 0.01% H2O2 and 1 μM CuCl2, room temperature
# [14] = system: Campylobacter coli (C. coli); assay: Campylobacter morphology after inactivation (Gram safranin stain); conditions: 3% H2O2 5 hours, or 0.01% H2O2 and 2 uM CuCl2
# [15] = 20 hours, room temperature, 150 mM NaPO4
# [16] = 0.01% formaldehyde with high oxyanion, 20 days at 37° C.
# [17] = 0.1% BPL with high oxyanion, 20 hours
# [18] = BEI, Na2HPO4 150 mM, 20 hours at 37° C.
smiles,measurement,setting,value
"CN1C(=O)/C(=N\NC(N)=S)c2ccccc21 [methisazone, N-methyl-isatin β-thiosemicarbazone]",inactivation rate on addition of methisazone to H2O2/CuCl2,[1],substantially enhanced inactivation rates
same,rate of dual-oxidation-based inactivation on addition of methisazone,"[2]; H2O2=0.002%, CuCl2=1 μM, MZ=10 μM, 150 mM NaPO4",substantially increase the rate
same,virus inactivation by methisazone alone,[2]; MZ=10 μM,minimal impact
same,increase of the rate of inactivation on addition of methisazone,"[2]; dual oxidation, 150 mM NaPO4, stated for CHIKV and DENV4 together",10- to 20 fold
same,deaths among close contacts receiving methisazone,[3],no deaths
same,inactivation rate on addition of methisazone to H2O2/CuCl2,[4],substantially enhanced inactivation rates
same,inactivation rate on addition of methisazone to H2O2/CuCl2,[5],substantially enhanced inactivation rates
same,antigenicity on addition of methisazone to dual oxidation,[6]; [15],maintained or significantly improved antigenicity
same,"antigenicity, methisazone together with polyatomic oxyanions","[6]; H2O2=0.002%, CuCl2=1 μM, 150 mM Na2HPO4, methisazone 10 μM, 20 hours",higher antigenicity than could be achieved by either approach in isolation
same,rate of dual-oxidation-based inactivation on addition of methisazone,[7],substantially increase the rate
same,increase of the rate of inactivation on addition of methisazone,[8],10- to 20 fold
same,rate of dual-oxidation-based inactivation on addition of methisazone,[8],substantially increase the rate
same,virus inactivation (plaque assay at 1 hr) with increasing methisazone relative to the transition metal,[8],increased virus inactivation rates
same,virus inactivation by methisazone alone,[8],minimal impact
same,antigenicity on addition of methisazone to dual oxidation,[9]; [15],maintained or significantly improved antigenicity
same,retained antigenicity at 20 hrs with increasing methisazone relative to the transition metal,"[9]; H2O2 0.02%, CuCl2 1 μM, 150 mM NaPO4",improvements in both retained antigenicity
same,serious adverse events,"[10]; mean initial dose 152 mg/kg, total average 809 mg/kg over 3.75 days",lack of serious adverse events
same,complications of vaccinia vaccination,[10]; used prophylactically prior to vaccinia vaccination,reduce complications
"[Cl-].[Cl-].[Mg+2] [magnesium chloride, reference compound]",ELISA signal / antigenicity with added salt during H2O2/CuCl2 inactivation,[6]; room temperature,no protective effect on antigenicity
"O=C1CCO1 [BPL, β-propiolactone, reference compound]",ELISA signal,"[6]; standard BPL conditions: 0.1% BPL, 20 hours, room temperature",loss of ELISA signal
"O=P(O)(O)O [Na2HPO4, sodium phosphate]",virus inactivation with added salt during H2O2/CuCl2 inactivation,[2],complete virus inactivation
same,virus inactivation,[2]; [16],completely inactivated
same,virus inactivation,[2]; [17],completely inactivated
same,kinetics of virus inactivation in presence vs absence of high Na2HPO4,"[2]; 150 mM vs 10 mM, 0.01% H2O2, 1 μM CuCl2",similar
same,virus inactivation,[2]; [18],completely inactivated
same,ELISA signal / antigenicity with added salt during H2O2/CuCl2 inactivation,[6]; room temperature,increased ELISA signal
same,ELISA signal with added oxyanion during formaldehyde inactivation,[6],increased ELISA signals
same,ELISA signal with added oxyanion during BPL inactivation,"[6]; 20 hours, room temperature",increased ELISA signals
same,ELISA signal with added oxyanion during BEI inactivation,[6]; [18],increased ELISA signals
same,"residual live virus (co-culture, estimated LOD of 100 PFU/mL)",[8],completely inactivated
same,ELISA signal with added oxyanion during H2O2/CuCl2 inactivation,"[9]; 0.01% H2O2, 5 μM CuCl2, 20 hours, 150 mM Na2HPO4 with or without 3 mM Na3P3O9",increased ELISA signals
[Cl][Fe]([Cl])[Cl] [FeCl3],antigenicity with increasing FeCl3 concentrations,[11],enhanced antigenicity
"OO [H2O2, hydrogen peroxide]",neutralizing epitopes (antigenicity),[12],severe damage to neutralizing epitopes
same,kinetics of virus inactivation versus total viral protein concentration,[13],protein concentration-independent
same,bacterial morphology,[14],substantially damaged with clear changes in morphology
same,antigenicity (in vitro potency testing using envelope-specific MAbs),[9]; 3% H2O2 under standard conditions,nearly complete loss of antigenicity
O=S(=O)([O-])[O-].[Mg+2] [magnesium sulfate],virus inactivation with added salt during H2O2/CuCl2 inactivation,[2],complete virus inactivation
same,ELISA signal / antigenicity with added salt during H2O2/CuCl2 inactivation,[6]; room temperature,improved antigenicity
NNC(N)=S [thiosemicarbazide],rate of inactivation (viable virus at 1 hr post-inactivation),"[2]; CuCl2=1 μM, 150 mM NaPO4",enhancement of inactivation
same,antigenicity (ELISA at 20 hrs post-inactivation),"[6]; CuCl2=1 μM, 150 mM NaPO4",superior antigenicity
O=P1([O-])OP(=O)([O-])OP(=O)([O-])O1.[Na+].[Na+].[Na+] [sodium trimetaphosphate],virus inactivation with added salt during H2O2/CuCl2 inactivation,[2],completely inactivated
same,ELISA signal / antigenicity with added salt during H2O2/CuCl2 inactivation,[6]; room temperature,increased ELISA signals
CCCN1C(=O)C(=NNC(N)=S)c2ccccc21 [N-propylisatin β-thiosemicarbazone],rate of inactivation (viable virus at 1 hr post-inactivation),"[2]; CuCl2=1 μM, 150 mM NaPO4",enhanced rates of inactivation
same,antigenicity (ELISA at 20 hrs post-inactivation),"[6]; CuCl2=1 μM, 150 mM NaPO4",superior antigenicity
O=P([O-])([O-])OP(=O)([O-])OP(=O)([O-])[O-].[Na+].[Na+].[Na+].[Na+].[Na+] [sodium triphosphate],virus inactivation with added salt during H2O2/CuCl2 inactivation,[2],completely inactivated
same,ELISA signal / antigenicity with added salt during H2O2/CuCl2 inactivation,[6]; room temperature,increased ELISA signals
O=C1Nc2ccccc2C1=O [isatin],rate of inactivation (viable virus at 1 hr post-inactivation),"[2]; CuCl2=1 μM, 150 mM NaPO4",do not appear to increase the rate of inactivation
same,antigenicity (ELISA at 20 hrs post-inactivation),"[6]; CuCl2=1 μM, 150 mM NaPO4",protection of protein antigens from oxidative damage
NNC(N)=O [semicarbazide],rate of inactivation (viable virus at 1 hr post-inactivation),"[2]; CuCl2=1 μM, 150 mM NaPO4",do not appear to increase the rate of inactivation
same,antigenicity (ELISA at 20 hrs post-inactivation),"[6]; CuCl2=1 μM, 150 mM NaPO4",protection of protein antigens from oxidative damage
O=S(=O)([O-])[O-].[Na+].[Na+] [sodium sulfate],virus inactivation with added salt during H2O2/CuCl2 inactivation,[2],complete virus inactivation
same,virus inactivation,[2]; [16],completely inactivated
same,virus inactivation,[2]; [17],completely inactivated
same,ELISA signal / antigenicity with added salt during H2O2/CuCl2 inactivation,[6]; room temperature,improved antigenicity
same,ELISA signal with added oxyanion during formaldehyde inactivation,[6],increased ELISA signals
same,ELISA signal with added oxyanion during BPL inactivation,"[6]; 20 hours, room temperature",increased ELISA signals
"[Cl-].[Na+] [sodium chloride, reference compound]",ELISA signal / antigenicity with added salt during H2O2/CuCl2 inactivation,[6]; room temperature,no protective effect on antigenicity
NC(=S)NN=C1C(=O)Nc2ccccc21 [isatin β-thiosemicarbazone],rate of inactivation (viable virus at 1 hr post-inactivation),"[2]; CuCl2=1 μM, 150 mM NaPO4",enhanced rates of inactivation
same,antigenicity (ELISA at 20 hrs post-inactivation),"[6]; CuCl2=1 μM, 150 mM NaPO4",superior antigenicity
